# From patent publication US20110046070A1, “GENE EXPRESSION INHIBITOR SELECTIVE FOR MATRIX METALLOPROTEINASE-9 GENE” (priority 2008, published 2011)
# Test system: liver metastasis of human colon cancer cell strain HT29 transplanted in the spleen
# Assay: Nude mouse models with liver metastasis from human colon cancer
# Type: in vivo, nude mice
# Conditions: HT29 cells cultured 1 hour with 10 μM polyamide, splenic transplantation, 6 weeks
# Protocol: 5-week-old male nude mice (BALB/c Nude Mice CBy.Cg-Foxn1nu/J) (Jackson Laboratory) were purchased, maintained in a pathogen-free environment until 6 week olds, and used in the experiment. A human colon cancer cell strain HT29 was monolayer-cultured in a 100-cm^2 cell culture flask and treated with 0.05% trypsin and 0.02% EDTA solutions before reaching confluence. The cells were collected, centrifuged at 800 rpm for 3 minutes, then washed with PBS containing neither Ca^2+ nor Mg^2+, and cultured for 1 hour in a culture solution adjusted to a polyamide concentration of 10 μM or a polyamide-free culture solution. Then, a cell suspension having a concentration of 3×10^6 cells in 100 μl again was prepared using PBS. The thus-prepared 3 groups of the cells containing HMMP9NFκβ polyamide, containing mismatch polyamide and in polyamide-free PBS were separately administered to the nude mice (6 individuals/group). Longitudinal incision was made in the skin on the left side of the abdominal regions of the nude mice under anesthesia. After peritoneotomy to the spleen, 100 μl of the colon cancer cell suspension was transplanted to the splenic subcapsular region using a 29-G injection needle (FIG. 29A). The reliable splenic subcapsular transfer of the cell grafts was confirmed based on change in the color tone of the cell-transplanted site through the splenic capsule and the absence of bleeding or leakage of the suspension. After the transplantation, the mice were raised for 6 weeks and subjected to autopsy. The livers and the spleens were extracted, fixed in a 10% buffered formalin solution, then histologically stained with hematoxylin eosin, and subjected to microscopic observation. […] The liver metastatic foci are circled in the preparations.
smiles,measurement,value
CC(=O)Nc1cc(C(=O)Nc2cc(C(=O)NCCC(=O)Nc3cc(C(=O)Nc4cc(C(=O)NCCCC(=O)Nc5cn(C)c(C(=O)Nc6cn(C)c(C(=O)NCCC(=O)Nc7cc(C(=O)Nc8cc(C(=O)NCCC(=O)NCCCN(C)C)n(C)c8)n(C)c7)n6)n5)n(C)c4)n(C)c3)n(C)c2)n(C)c1 [HMMP9NFκβ],area of liver metastatic foci,small
same,number of liver metastatic foci,distinctly small
same,size of liver metastatic foci,distinctly small
